Laboratory results: USRE48097E1, “Cephem compounds, their production and use” (priority 2015, dated 2020)
Like-named read-outs stand apart in the source and are kept apart here.

Tests used:
Type in all cases: cell-based
[1] = system: K. pneumoniae 4108; test: MIC against K. pneumoniae 4108; conditions: K. pneumoniae 4108, KPC-3, TEM-166, SHV-12, SHV-141
Method: (§1) As shown, the foregoing composition was tested for minimum inhibitory concentration (MIC, μg/mL) against bacteria listed in Tables 2-3.

[2] = system: E. cloacae 552; test: MIC against E. cloacae 552; conditions: Table 2, E. cloacae 552, Caz S, IMP S
Text: (§2) Without limitation, the present cephem compounds alone, or in combination with one or more β-lactamase inhibitors, may provide improved antibacterial efficacy, particularly in antibiotic-resistant bacterial strains. It is believed that the present compounds may be structurally different from known compounds and, as a result, may be more basic in nature. It is an advantage that the present compounds may extend the spectrum of effective bacterial compounds, particularly against previously-resistant bacteria (e.g. ESKAPE organisms), and/or gram negative bacteria, without significant side effects. In a preferred embodiment, the present cephem compound may comprise reference compound ceftazidime, which may be used alone, or in combination with one or more β-lactamase inhibitors, such as NXL-104. As shown, the foregoing composition was tested for minimum inhibitory concentration (MIC, μg/mL) against bacteria listed in Tables 2-3.

[3] = system: K. pneumoniae 2711; test: MIC against K. pneumoniae 2711; conditions: Table 3, K. pneumoniae 2711, KPC-3, VIM-1
Method: as §1

[4] = system: K. pneumoniae 4109; test: MIC against K. pneumoniae 4109; conditions: Table 2, K. pneumoniae 4109, SHV-1, SHV-12
Text: as §2

[5] = system: S. aureus 3132; test: MIC against S. aureus 3132; conditions: Table 2, S. aureus 3132, MSSA
Text: as §2

[6] = system: E. cloacae 2710; test: MIC against E. cloacae 2710; conditions: Table 3, E. cloacae 2710, KPC-3, VIM-1
Method: as §1

[7] = system: E. coli 4080; test: MIC against E. coli 4080; conditions: Table 2, E. coli 4080, TEM-10
Text: as §2

[8] = system: K. baumanii 4091; test: MIC against K. baumanii 4091; conditions: Table 2, K. baumanii 4091, OXA-23
Text: as §2

[9] = system: E. cloacae 2709; test: MIC against E. cloacae 2709; conditions: Table 3, E. cloacae 2709, KPC-3, VIM-1
Method: as §1

[10] = system: E. coli 4101; test: MIC against E. coli 4101; conditions: Table 2, E. coli 4101, CTX-M-14, TEM-1
Text: as §2

[11] = system: S. pneumoniae 2407; test: MIC against S. pneumoniae 2407; conditions: Table 2, S. pneumoniae 2407, Pen S
Text: as §2

[12] = system: E. coli 2666; test: MIC against E. coli 2666; conditions: Table 3, E. coli 2666, KPC-2
Method: as §1

[13] = system: E. cloacae 2705; test: MIC against E. cloacae 2705; conditions: Table 3, E. cloacae 2705, VIM-1, KPC-3type
Method: as §1

[14] = system: S. pneumoniae 2405; test: MIC against S. pneumoniae 2405; conditions: Table 2, S. pneumoniae 2405, Pen S
Text: as §2

[15] = system: E. cloacae 2704; test: MIC against E. cloacae 2704; conditions: Table 2, E. cloacae 2704, P99
Text: as §2

[16] = system: K. pneumoniae 4105; test: MIC against K. pneumoniae 4105; conditions: K. pneumoniae 4105, KPC-3, TEM-1, SHV-11
Method: as §1

[17] = system: K. pneumoniae 2713; test: MIC against K. pneumoniae 2713; conditions: Table 3, K. pneumoniae 2713, KPC-3, VIM-1
Method: as §1

[18] = system: K. pneumoniae 2690; test: MIC against K. pneumoniae 2690; conditions: Table 3, K. pneumoniae 2690, KPC-2
Method: as §1

[19] = system: P. aeruginosa 2686; test: MIC against P. aeruginosa 2686; conditions: Table 3, P. aeruginosa 2686, KPC-2
Method: as §1

[20] = system: E. cloacae 566; test: MIC against E. cloacae 566; conditions: Table 2, E. cloacae 566, Caz R, IMP S
Text: as §2

[21] = system: K. baumanii 4094; test: MIC against K. baumanii 4094; conditions: Table 2, K. baumanii 4094, OXA-51
Text: as §2

[22] = system: K. pneumoniae 4106; test: MIC against K. pneumoniae 4106; conditions: K. pneumoniae 4106, KPC-3, TEM-1, SHV-12, SHV-141
Method: as §1

[23] = system: K. baumanii 4095; test: MIC against K. baumanii 4095; conditions: Table 2, K. baumanii 4095, OXA-48
Text: as §2

[24] = Klebsiella pneumoniae, 4108, Table 2, alone, read-out: MIC
[25] = Klebsiella pneumoniae, 4108, Table 3, alone, read-out: MIC
[26] = Table 2, in combination with NXL-104
[27] = Table 3, in combination with NXL-104
[28] = Enterobacter cloacae, alone, read-out: MIC
[29] = Klebsiella pneumoniae, alone, read-out: MIC
[30] = Staphylococcus aureus, alone, read-out: MIC
[31] = Escherichia coli, alone, read-out: MIC
[32] = Streptococcus pneumoniae, alone, read-out: MIC
[33] = Klebsiella pneumoniae, 4105, Table 2, alone, read-out: MIC
[34] = Klebsiella pneumoniae, 4105, Table 3, alone, read-out: MIC
[35] = Pseudomonas aeruginosa, alone, read-out: MIC
[36] = Klebsiella pneumoniae, 4106, Table 2, alone, read-out: MIC
[37] = Klebsiella pneumoniae, 4106, Table 3, alone, read-out: MIC

Measured: MIC

CC(C)(O/N=C(\C(=O)N[C@@H]1C(=O)N2C(C(=O)[O-])=C(C[n+]3ccc4c(ccn4Cc4cc(C(=N)N)cs4)c3)CS[C@H]12)c1csc(N)n1)C(=O)O [Example 5, (6R,7R)-7-{[(2Z)-2-(2-Amino-1,3-thiazol-4-yl)-2-{[(2-carboxypropan-2-yl)oxy]imino}acetyl]amino}-3-({1-[(4-carbamimidoylthiophen-2-yl)methyl]-1H-pyrrolo[3,2-c]pyridin-5-ium-5-yl}methyl)-8-oxo-5-thia-1-azabicyclo[4.2.0]oct-2-ene-2-carboxylate]
1 µg/mL: [1]; [27] | [12]; in combination with NXL-104 | [16]; [27]
.5 µg/mL: [18]; in combination with NXL-104
0.5 µg/mL: [10]; [31]
4.00 µg/mL: [21]; in combination with NXL-104
> 32 µg/mL: [6]; [28] | [13]; [28] | [17]; [29]
4 µg/mL: [9]; in combination with NXL-104
≤ 0.06 µg/mL: [11]; [32] | [14]; [32]
0.12 µg/mL: [2]; [28] | [4]; in combination with NXL-104 | [10]; in combination with NXL-104
32 µg/mL: [1]; [25] | [9]; [28] | [16]; [33] | [16]; [34] | [19]; [35] | [22]; [37]
>32 µg/mL: [6]; in combination with NXL-104 | [13]; in combination with NXL-104
2.00 µg/mL: [5]; in combination with NXL-104 | [8]; in combination with NXL-104 | [15]; in combination with NXL-104
1.00 µg/mL: [16]; [26] | [22]; [26]
0.25 µg/mL: [3]; in combination with NXL-104 | [23]; alone, read-out: MIC | [23]; in combination with NXL-104
8 µg/mL: [1]; [24] | [4]; [29] | [8]; alone, read-out: MIC | [18]; [29] | [19]; in combination with NXL-104
2 µg/mL: [3]; [29] | [5]; [30] | [17]; in combination with NXL-104 | [20]; [28] | [22]; [27]
0.50 µg/mL: [1]; [26] | [7]; in combination with NXL-104 | [20]; in combination with NXL-104
≤0.06 µg/mL: [2]; in combination with NXL-104 | [11]; in combination with NXL-104 | [14]; in combination with NXL-104
16 µg/mL: [7]; [31] | [12]; [31] | [15]; [28] | [21]; alone, read-out: MIC | [22]; [36]

CC(C)(O/N=C(\C(=O)N[C@@H]1C(=O)N2C(C(=O)[O-])=C(C[n+]3ccc4n3CCN4Cc3ccc(C(=N)N)cc3)CS[C@H]12)c1csc(N)n1)C(=O)O [Example 2, (6R,7R)-7-{[(2Z)-2-(2-Amino-1,3-thiazol-4-yl)-2-{[(2-carboxypropan-2-yl)oxy]imino}acetyl]amino}-3-{[1-(4-carbamimidoylbenzyl)-2,3-dihydro-1H-imidazo[1,2-b]pyrazol-5-ium-5-yl]methyl}-8-oxo-5-thia-1-azabicyclo[4.2.0]oct-2-ene-2-carboxylate]
0.25 µg/mL: [20]; in combination with NXL-104 | [23]; alone, read-out: MIC | [23]; in combination with NXL-104
0.12 µg/mL: [2]; [28] | [2]; in combination with NXL-104 | [4]; in combination with NXL-104 | [10]; in combination with NXL-104 | [11]; [32] | [11]; in combination with NXL-104 | [14]; [32]
0.5 µg/mL: [3]; in combination with NXL-104 | [4]; [29] | [10]; [31] | [20]; [28]
>32 µg/mL: [6]; in combination with NXL-104 | [13]; in combination with NXL-104
8.00 µg/mL: [21]; in combination with NXL-104
≤0.06 µg/mL: [14]; in combination with NXL-104
1.00 µg/mL: [1]; [26] | [7]; in combination with NXL-104 | [15]; in combination with NXL-104
4 µg/mL: [1]; [24] | [3]; [29] | [9]; in combination with NXL-104 | [15]; [28] | [22]; [27]
32 µg/mL: [12]; [31] | [16]; [33] | [18]; [29] | [21]; alone, read-out: MIC
> 32 µg/mL: [1]; [25] | [6]; [28] | [13]; [28] | [16]; [34] | [17]; [29] | [19]; [35] | [22]; [37]
16 µg/mL: [9]; [28] | [19]; in combination with NXL-104
2 µg/mL: [1]; [27] | [5]; [30] | [12]; in combination with NXL-104 | [16]; [27] | [17]; in combination with NXL-104 | [18]; in combination with NXL-104
2.00 µg/mL: [5]; in combination with NXL-104 | [8]; in combination with NXL-104 | [16]; [26] | [22]; [26]
8 µg/mL: [7]; [31] | [8]; alone, read-out: MIC | [22]; [36]
